Measured values: patent US9650399B2, “Salicylic acid derivatives, pharmaceutically acceptable salt thereof, composition thereof and method of use thereof” (The Governing Council of the University of Toronto, priority 2012, dated 2017)

Columns and labels:
Assay type in all cases: cell-based, human
BTSC73M = assay: alamarBlue cell viability, BTSC 73M; conditions: Table 4 library screen, alamarBlue; for IC50: Homo sapiens, read-out: 73M IC50
Procedure: (§1) First, the library was screened for biological activity against a set of three representative GBM BTSCs derived from GBM patients, including the very aggressive GBM BTSC lines, BTSC73M, BTSC30M, BTSC68EF. Dissociated BTSC spheres were seeded at 1500 cells/96-well and treated with drug compound or vehicle (DMSO) one day after plating. Cell viability following drug treatment was assessed after 72 hrs using the ALAMARBLUE™ assay (Invitrogen) according to the manufacturer's instructions. All culture experiments were performed in triplicate with a minimum of three wells per condition.
(§2) BTSC spheres were dissociated to single cells with the enzyme Accumax (Innovative Technologies), seeded at 1500 cells/96-well and treated with drug or vehicle (DMSO) one day after plating. […] BTSC spheres were dissociated to single cells as above and plated in 96 well plates in triplicate at 3000 cells/96-well. […] Cell viability following drug treatment was assessed three days later using the ALAMARBLUE™ assay (Invitrogen) according to the manufacturer's instructions. All culture experiments were performed in triplicate with a minimum of three wells per condition.

BTSC68EF = assay: alamarBlue cell viability, BTSC 68EF; conditions: Table 4 library screen, alamarBlue; for IC50: Homo sapiens, read-out: 68EF IC50
Procedure: as §1, §2

BTSC30M = assay: alamarBlue cell viability, BTSC 30M; conditions: Table 4 library screen, alamarBlue; for IC50: Homo sapiens, read-out: 30M IC50 (μM)
Procedure: as §1, §2

147EF = assay: alamarBlue cell viability, BTSC 147EF; conditions: Table 4 library screen; for IC50: Homo sapiens
Text: BTSC spheres were dissociated to single cells with the enzyme Accumax (Innovative Technologies), seeded at 1500 cells/96-well and treated with drug or vehicle (DMSO) one day after plating. Cytotoxicity studies were repeated independently at Sickkids Hospital using BTSC lines 25M, 67EF, 73EF, 84EF and 127EF. BTSC spheres were dissociated to single cells as above and plated in 96 well plates in triplicate at 3000 cells/96-well. In both sets of experiments drugs were used as serial dilutions within the range of 5 μM to 100 nM in the first set and 25 μM to 10 nM. Cell viability following drug treatment was assessed three days later using the ALAMARBLUE™ assay (Invitrogen) according to the manufacturer's instructions. All culture experiments were performed in triplicate with a minimum of three wells per condition. Table 4 below illustrates a screen of the library against a number of BTSCs using ALAMARBLUE™ assay.

SMILES	73M IC50 (μM) (BTSC73M)	30M IC50 (μM) (BTSC30M)	IC50 (BTSC30M) [µM]	IC50 (BTSC73M) [nM]	also measured
CCOC(=O)c1ccc(N(Cc2ccc(C3CCCCC3)cc2)C(=O)CN(C)S(=O)(=O)c2c(F)c(F)c(F)c(F)c2F)cc1 [Compound 40, ethyl 4-(N-(4-cyclohexylbenzyl)-2-(2,3,4,5,6-pentafluoro-N-methylphenylsulfonamido)acetamido)benzoate]	no effect	–	–	–	–
Cc1ccc(S(=O)(=O)N(C)CC(=O)N(Cc2ccc(C3CCCCC3)cc2)c2ccc(N)cc2)cc1 [Compound 11, N-(4-aminophenyl)-N-(4-cyclohexylbenzyl)-2-(N,4-dimethylphenylsulfonamido)acetamide]	no effect	no effect	–	–	68EF IC50 (μM) (BTSC68EF): no effect; 147EF IC50 (μM) (147EF): no effect
Cc1ccc(S(=O)(=O)N(C)CC(=O)N(Cc2ccc(C3CCCCC3)cc2)c2ccc(O)cc2)cc1 [Compound 45, N-(4-cyclohexylbenzyl)-2-(N,4-dimethylphenylsulfonamido)-N-(4-hydroxyphenyl)acetamide]	no effect	no effect	–	–	68EF IC50 (μM) (BTSC68EF): no effect; 147EF IC50 (μM) (147EF): no effect
CN(CC(=O)N(Cc1ccc(C2CCCCC2)cc1)c1ccc(NS(N)(=O)=O)cc1)S(=O)(=O)c1c(F)c(F)c(F)c(F)c1F [Compound 16, N-(4-cyclohexylbenzyl)-2-(2,3,4,5,6-pentafluoro-N-methylphenylsulfonamido)-N-(4-(sulfamoylamino)phenyl)acetamide]	–	–	0.95	2040	IC50 (BTSC68EF): 839 nM
CN(CC(=O)N(Cc1ccc(C2CCCCC2)cc1)c1ccc(C#N)cc1)S(=O)(=O)c1c(F)c(F)c(F)c(F)c1F [Compound 34, N-(4-cyanophenyl)-N-(4-cyclohexylbenzyl)-2-(2,3,4,5,6-pentafluoro-N-methylphenylsulfonamido)acetamide]	no effect	–	2.23	–	–
CCOC(=O)C(=O)Nc1ccc(N(Cc2ccc(C3CCCCC3)cc2)C(=O)CN(C)S(=O)(=O)c2c(F)c(F)c(F)c(F)c2F)cc1 [Compound 17, ethyl 2-((4-(N-(4-cyclohexylbenzyl)-2-(2,3,4,5,6-pentafluoro-N-methylphenylsulfonamido)acetamido)phenyl)amino)-2-oxoacetate]	–	–	0.694	1240	IC50 (BTSC68EF): 631 nM
CN(CC(=O)N(Cc1ccc(C2CCCCC2)cc1)c1ccc(-c2nnn[nH]2)cc1)S(=O)(=O)c1c(F)c(F)c(F)c(F)c1F [Compound 35, N-(4-(1H-tetrazol-5-yl)phenyl)-N-(4-cyclohexylbenzyl)-2-(2,3,4,5,6-pentafluoro-N-methylphenylsulfonamido)acetamide]	–	no effect	–	2770	68EF IC50 (μM) (BTSC68EF): no effect
CN(CC(=O)N(Cc1ccc(C2CCCCC2)cc1)c1ccc(NS(=O)(=O)c2ccc3ccccc3c2)cc1)S(=O)(=O)c1c(F)c(F)c(F)c(F)c1F [Compound 12, N-(4-cyclohexylbenzyl)-N-(4-(naphthalene-2-sulfonamido)phenyl)-2-(2,3,4,5,6-pentafluoro-N-methylphenylsulfonamido)acetamide]	no effect	no effect	–	–	–
Cc1ccc(S(=O)(=O)N(C)CC(=O)N(Cc2ccc(C3CCCCC3)cc2)c2ccc(C(=O)NO)cc2)cc1 [Compound 44, 4-(N-(4-cyclohexylbenzyl)-2-(N,4-dimethylphenylsulfonamido)acetamido)-N-hydroxybenzamide]	no effect	no effect	–	–	IC50 (BTSC68EF): 1740 nM; IC50 (147EF): 2450 nM
COC(=O)c1ccc(N(Cc2ccc(C3CCCCC3)cc2)C(=O)CN(C)S(=O)(=O)c2c(F)c(F)c(F)c(F)c2F)cc1 [Compound 39, methyl 4-(N-(4-cyclohexylbenzyl)-2-(2,3,4,5,6-pentafluoro-N-methylphenylsulfonamido)acetamido)benzoate]	–	–	1.09	3320	IC50 (BTSC68EF): 607 nM
CN(CC(=O)N(Cc1ccc(C2CCCCC2)cc1)c1cc(C(=O)O)cc(C(=O)O)c1)S(=O)(=O)c1c(F)c(F)c(F)c(F)c1F [Compound 37, 5-(N-(4-cyclohexylbenzyl)-2-(2,3,4,5,6-pentafluoro-N-methylphenylsulfonamido)acetamido)isophthalic acid]	no effect	no effect	–	–	–
CN(CC(=O)N(Cc1ccc(C2CCCCC2)cc1)c1cccc(O)c1)S(=O)(=O)c1c(F)c(F)c(F)c(F)c1F [Compound 30, N-(4-cyclohexylbenzyl)-N-(3-hydroxyphenyl)-2-(2,3,4,5,6-pentafluoro-N-methylphenylsulfonamido)acetamide]	–	–	0.776	2840	–
CN(CC(=O)N(Cc1ccc(C2CCCCC2)cc1)c1ccc(NS(=O)(=O)c2ccc3ncccc3c2)cc1)S(=O)(=O)c1c(F)c(F)c(F)c(F)c1F [Compound 13, N-(4-cyclohexylbenzyl)-2-(2,3,4,5,6-pentafluoro-N-methylphenylsulfonamido)-N-(4-(quinoline-6-sulfonamido)phenyl)acetamide]	no effect	no effect	–	–	–
CN(CC(=O)N(Cc1ccc(C2CCCCC2)cc1)c1ccc(NC(=O)C(=O)O)cc1)S(=O)(=O)c1c(F)c(F)c(F)c(F)c1F [Compound 28, 2-((4-(N-(4-cyclohexylbenzyl)-2-(2,3,4,5,6-pentafluoro-N-methylphenylsulfonamido)acetamido)phenyl)amino)-2-oxoacetic acid]	no effect	no effect	–	–	147EF IC50 (μM) (147EF): no effect
CN(CC(=O)N(Cc1ccc(C2CCCCC2)cc1)c1ccc(CP(=O)(O)O)cc1)S(=O)(=O)c1c(F)c(F)c(F)c(F)c1F [Compound 21, (4-(N-(4-cyclohexylbenzyl)-2-(2,3,4,5,6-pentafluoro-N-methylphenylsulfonamido)acetamido)benzyl)phosphonic acid]	no effect	–	–	–	–
CN(CC(=O)N(Cc1ccc(C2CCCCC2)cc1)c1ccc(O)cc1)S(=O)(=O)c1c(F)c(F)c(F)c(F)c1F [Compound 29, N-(4-cyclohexylbenzyl)-N-(4-hydroxphenyl)-2-(2,3,4,5,6-pentafluoro-N-methylphenylsulfonamido)acetamide]	–	–	0.941	–	IC50 (BTSC68EF): 1090 nM
CCOP(=O)(Cc1ccc(N(Cc2ccc(C3CCCCC3)cc2)C(=O)CN(C)S(=O)(=O)c2c(F)c(F)c(F)c(F)c2F)cc1)OCC [Compound 20, diethyl 4-(N-(4-cyclohexylbenzyl)-2-(2,3,4,5,6-pentafluoro-N-methylphenylsulfonamido)acetamido)benzylphosphonate]	–	–	0.664	1820	68EF IC50 (μM) (BTSC68EF): no effect
CN(CC(=O)N(Cc1ccc(C2CCCCC2)cc1)c1ccc(NS(=O)(=O)c2cncn2C)cc1)S(=O)(=O)c1c(F)c(F)c(F)c(F)c1F [Compound 15, N-(4-cyclohexylbenzyl)-N-(4-(1-methyl-1H-imidazole-5-sulfonamido)phenyl)-2-(2,3,4,5,6-pentafluoro-N-methylphenylsulfonamido)acetamide]	–	–	0.607	–	–
CCOC(=O)C(=O)Nc1ccc(N(Cc2ccc(C3CCCCC3)cc2)C(=O)CN(C)S(=O)(=O)c2ccc(C)cc2)cc1 [Compound 18, ethyl 2-((4-(N-(4-cyclohexylbenzyl)-2-(N,4-dimethylphenylsulfonamido)acetamido)phenyl)amino)-2-oxoacetate]	no effect	no effect	–	–	IC50 (147EF): 3580 nM
CN(CC(=O)N(Cc1ccc(C2CCCCC2)cc1)c1ccc(NS(C)(=O)=O)cc1)S(=O)(=O)c1c(F)c(F)c(F)c(F)c1F [Compound 14, N-(4-cyclohexylbenzyl)-N-(4-(methylsulfonamido)phenyl)-2-(2,3,4,5,6-pentafluoro-N-methylphenylsulfonamido)acetamide]	–	–	0.718	1810	IC50 (BTSC68EF): 806 nM
CC(=O)OCOC(=O)c1ccc(N(Cc2ccc(C3CCCCC3)cc2)C(=O)CN(C)S(=O)(=O)c2c(F)c(F)c(F)c(F)c2F)cc1 [Compound 26, acetoxymethyl 4-(N-(4-cyclohexylbenzyl)-2-(2,3,4,5,6-pentafluoro-N-methylphenylsulfonamido)acetamido)benzoate]	–	–	1.95	4340	–
Cc1ccc(S(=O)(=O)N(C)CC(=O)N(Cc2ccc(C3CCCCC3)cc2)c2ccc(NC(=O)C(=O)O)cc2)cc1 [Compound 46, 2-((4-(N-(4-cyclohexylbenzyl)-2-(N,4-dimethylphenylsulfonamido)acetamido)phenyl)amino)-2-oxoacetic acid]	no effect	no effect	–	–	147EF IC50 (μM) (147EF): no effect
